Experimental data reported in paper PMC8243326, “Data-Driven Ensemble Docking to Map Molecular Interactions of Steroid Analogs with Hepatic Organic Anion Transporting Polypeptides” (Journal of Chemical Information and Modeling, 2021).
Read-outs that look alike come from different tables or passages of the source.

Legend:
OATP2B1 [1] = biological target: T1, OATP2B1 (Homo sapiens, UniProt O94956); assay: Pyranine uptake inhibition in A431 cells overexpressing OATP2B1; details: for fold decrease in activity compared with compound 11: OATP2B1, 3-hydroxy and 3-methoxy analogs vs 3-benzyloxy compound 11
T1 sequence (O94956 1-709): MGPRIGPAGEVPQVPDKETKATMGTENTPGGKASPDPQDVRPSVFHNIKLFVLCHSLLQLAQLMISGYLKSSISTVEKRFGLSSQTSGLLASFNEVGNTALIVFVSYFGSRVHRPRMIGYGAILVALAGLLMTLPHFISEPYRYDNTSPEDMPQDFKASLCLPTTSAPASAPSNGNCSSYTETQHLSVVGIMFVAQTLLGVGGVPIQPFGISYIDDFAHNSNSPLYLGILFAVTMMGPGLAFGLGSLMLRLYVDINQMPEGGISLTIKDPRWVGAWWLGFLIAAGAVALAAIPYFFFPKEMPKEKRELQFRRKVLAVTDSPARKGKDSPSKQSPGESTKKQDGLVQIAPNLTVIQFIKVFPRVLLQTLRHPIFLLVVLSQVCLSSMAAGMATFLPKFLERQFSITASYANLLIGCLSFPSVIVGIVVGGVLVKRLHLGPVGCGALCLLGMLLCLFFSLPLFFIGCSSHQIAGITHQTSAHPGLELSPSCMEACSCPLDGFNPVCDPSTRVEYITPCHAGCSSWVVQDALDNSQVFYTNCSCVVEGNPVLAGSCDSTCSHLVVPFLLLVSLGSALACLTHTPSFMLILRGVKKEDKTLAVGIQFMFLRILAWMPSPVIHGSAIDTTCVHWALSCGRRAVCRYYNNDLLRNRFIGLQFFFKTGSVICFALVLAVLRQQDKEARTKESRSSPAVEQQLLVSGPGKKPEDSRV
Experimental: (§1) Compounds with measured bioactivities (Km, IC50, Ki, and EC50 bioactivity end points or percentage inhibition values) on OATP1B1 (n = 440 compounds), OATP1B3 (n = 936 compounds), or OATP2B1 (n = 173 compounds) were collected from the open domain by utilizing a KNIME workflow, which collects data from five independent data sources as described in Tuerkova et al.[15] […] IC50 values were calculated based on transport inhibition measurements (see below) by Hill1 fit, using the Origin Pro8.6 software (OriginLab Corporation, Northampton, MA, US).
(§2) 20 mM stocks in DMSO were stored for further usage at −20 °C. A431 cells overexpressing OATPs, OATP1B1, OATP1B3, or OATP2B1 or mock transfected controls were generated previously.[60] A431 cells were maintained in DMEM medium (Thermo Fischer Scientific, Waltham, MA, US) supplemented with 10% fetal bovine serum, 2 mM L-glutamine, 100 units/mL penicillin, and 100 μg/mL streptomycin at 37 °C with 5% CO2. […] The uptake of pyranine was measured on microplates based on the method developed by us previously.[60],[61]
(§3) Briefly, 1 day prior to the uptake measurement cells (8 × 10^4 cells/well in 200 μL DMEM) were seeded on 96-well plates. On the following day, the medium was removed, and the cells were washed three times with 200 μL of phosphate-buffered saline (PBS, pH 7.4) and preincubated with 50 μL of uptake buffer (125 mM NaCl, 4.8 mM KCl, 1.2 mM CaCl2, 1.2 mM KH2PO4, 12 mM MgSO4, 25 mM MES (2-(N-morpholino)ethanesulfonic acid, and 5.6 mM glucose, pH 5.5) with or without increasing concentrations of the tested compounds. The reaction was started by the addition of 50 μL of uptake buffer containing pyranine in a final concentration of 10 μM (OATP1B1) or 20 μM (OATP1B3 and OATP2B1). Cells were incubated with the dye at 37 °C for 15 min (OATP1B1 and OATP2B1) or 30 min (OATP1B3), after which the supernatant was removed, and the cells were washed three times with 200 μL of ice-cold PBS. Fluorescence (in 200 μL of PBS/well) was determined in an Enspire plate reader (PerkinElmer, Waltham, MA, Ex/Em = 403/517 nm). OATP-dependent transport was calculated by extracting fluorescence measured in mock transfected cells. Transport activity was calculated based on the fluorescence signal in the absence (100%) of the tested compounds. Experiments were repeated at least three times on cells deriving from different passages.
(§4) IC50 values were calculated by Hill1 fit, using the (OriginLab Corporation, Northampton, MA, US).

OATP1B1 [2] = biological target: T2, OATP1B1 (Homo sapiens, UniProt Q9Y6L6); assay: Pyranine uptake inhibition in A431 cells overexpressing OATP1B1; details: for activity on OATP1B1 and OATP1B3 (in words): statement covers both OATP1B1 and OATP1B3
T2 sequence (Q9Y6L6 1-691): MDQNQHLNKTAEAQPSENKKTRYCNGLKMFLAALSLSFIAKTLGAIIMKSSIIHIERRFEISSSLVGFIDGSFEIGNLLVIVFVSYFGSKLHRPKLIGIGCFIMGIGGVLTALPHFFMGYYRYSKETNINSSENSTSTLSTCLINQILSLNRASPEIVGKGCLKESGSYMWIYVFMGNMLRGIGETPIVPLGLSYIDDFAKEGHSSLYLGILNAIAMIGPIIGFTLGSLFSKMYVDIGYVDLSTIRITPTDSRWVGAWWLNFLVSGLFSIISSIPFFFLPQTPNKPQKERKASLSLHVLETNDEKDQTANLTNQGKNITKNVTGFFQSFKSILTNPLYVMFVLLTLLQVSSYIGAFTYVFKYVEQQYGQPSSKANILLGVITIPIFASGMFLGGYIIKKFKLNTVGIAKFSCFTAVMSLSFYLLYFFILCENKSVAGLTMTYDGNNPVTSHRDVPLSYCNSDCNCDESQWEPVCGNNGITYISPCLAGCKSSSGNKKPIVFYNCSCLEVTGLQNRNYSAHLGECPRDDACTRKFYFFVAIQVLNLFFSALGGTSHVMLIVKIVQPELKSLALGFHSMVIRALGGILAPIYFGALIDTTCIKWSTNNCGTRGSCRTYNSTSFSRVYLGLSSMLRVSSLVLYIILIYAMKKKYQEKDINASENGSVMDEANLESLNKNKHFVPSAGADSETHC
Experimental: IC50 values were calculated based on transport inhibition measurements (see below) by Hill1 fit, using the Origin Pro8.6 software (OriginLab Corporation, Northampton, MA, US).
as §2
Briefly, 1 day prior to the uptake measurement cells (8 × 10^4 cells/well in 200 μL DMEM) were seeded on 96-well plates. […] OATP-dependent transport was calculated by extracting fluorescence measured in mock transfected cells. Transport activity was calculated based on the fluorescence signal in the absence (100%) of the tested compounds. Experiments were repeated at least three times on cells deriving from different passages.
as §4

OATP1B3 [3] = biological target: T3, OATP1B3 (Homo sapiens, UniProt Q9NPD5); assay: Pyranine uptake inhibition in A431 cells overexpressing OATP1B3
T3 sequence (Q9NPD5 1-702): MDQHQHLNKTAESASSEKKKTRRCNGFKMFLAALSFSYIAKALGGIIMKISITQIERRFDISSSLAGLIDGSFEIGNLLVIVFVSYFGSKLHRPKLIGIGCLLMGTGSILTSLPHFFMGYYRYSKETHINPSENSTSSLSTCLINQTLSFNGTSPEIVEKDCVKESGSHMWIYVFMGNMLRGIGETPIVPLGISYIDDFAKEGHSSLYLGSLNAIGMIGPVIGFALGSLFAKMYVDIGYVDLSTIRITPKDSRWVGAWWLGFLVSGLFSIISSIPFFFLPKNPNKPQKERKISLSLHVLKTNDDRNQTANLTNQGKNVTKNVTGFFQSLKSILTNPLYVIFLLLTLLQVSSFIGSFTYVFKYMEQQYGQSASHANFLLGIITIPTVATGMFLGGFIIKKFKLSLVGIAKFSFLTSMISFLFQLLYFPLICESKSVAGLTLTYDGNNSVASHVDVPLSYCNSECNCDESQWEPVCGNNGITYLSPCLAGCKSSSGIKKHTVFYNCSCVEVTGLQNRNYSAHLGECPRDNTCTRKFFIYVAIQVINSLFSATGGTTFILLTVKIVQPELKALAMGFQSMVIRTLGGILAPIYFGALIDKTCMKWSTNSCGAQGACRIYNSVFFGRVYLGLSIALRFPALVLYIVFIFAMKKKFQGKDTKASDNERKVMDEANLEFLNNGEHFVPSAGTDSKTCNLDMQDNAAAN
Experimental: as §1, §2, §3, §4

OATP2B1 [4] = biological target: T1, OATP2B1; parameters: method as in earlier work; details: Figure S14; public data sources; cited from earlier work
OATP1B1 [5] = biological target: T2, OATP1B1; details: cited from earlier work; for median bioactivity value: OATP1B1, public data sources
OATP1B3 [6] = biological target: T3, OATP1B3; parameters: expressed in transfected cells; host or cells: A431 cells; details: public data sources; cited from earlier work

Row | Compound | IC50 (OATP2B1 [1]) [µM] | IC50 at 15 min (OATP2B1 [1]; human, pH 5.5) [µM] | IC50 (OATP1B1 [2]) [µM] | IC50 (OATP1B3 [3]) [µM] | activity on OATP1B1 and OATP1B3 (in words) (OATP1B1 [2]) | fold decrease in activity compared with compound 11 (OATP2B1 [1]) | IC50 (OATP2B1 [4]) [µM] | median bioactivity value (OATP1B1 [5]) [µM] | transporter selectivity (in words) (OATP1B1 [5]; OATP1B1 vs OATP1B3, known from literature) | median bioactivity value (OATP1B3 [6]) [µM]
1 | C[C@@]12CCC3c4ccc(O)c(Cl)c4CCC3C1CCC2=O (stereo partly drawn) [Compound 10] | 10.5 | 10.5 | 25 | > 50 |  |  |  |  |  | 
2 | CCOP(=O)(OCC)c1cc2c(cc1OCc1ccccc1)CCC1C2CC[C@@]2(C)C(=O)CCC12 (stereo partly drawn) [Compound 11] | 0.18 |  | 0.76 | 2.18 | highly active |  |  |  |  | 
3 | CCOP(=O)(OCC)c1c(OCc2ccccc2)ccc2c1CCC1C2CC[C@@]2(C)C(=O)CCC12 (stereo partly drawn) [Compound 12] | 0.75 |  | 3.22 | 2.49 | highly active |  |  |  |  | 
4 | CCOP(=O)(OCC)c1cc2c(cc1O)CCC1C2CC[C@@]2(C)C(=O)CCC12 (stereo partly drawn) [Compound 13] | 3.18 |  | 3.79 | 5.24 | moderate activity | approximately 17 fold |  |  |  | 
5 | CCOP(=O)(OCC)c1c(O)ccc2c1CCC1C2CC[C@@]2(C)C(=O)CCC12 (stereo partly drawn) [Compound 14] | 10.2 |  | > 50 | > 50 |  |  |  |  |  | 
6 | CCOP(=O)(OCC)c1cc2c(cc1OC)CCC1C2CC[C@@]2(C)C(=O)CCC12 (stereo partly drawn) [Compound 15] | 2.96 |  | 10.1 | 9.5 | rather inactive | approximately 17 fold |  |  |  | 
7 | CCOP(=O)(OCC)c1c(OC)ccc2c1CCC1C2CC[C@@]2(C)C(=O)CCC12 (stereo partly drawn) [Compound 16] | 2.74 |  | 32.4 | 11.8 | rather inactive |  |  |  |  | 
8 | C[C@]12CC[C@@H]3c4ccc(OS(=O)(=O)O)cc4CC[C@H]3[C@@H]1CCC2=O [E-3-S, estrone-3-sulfate] |  |  |  |  |  |  | 10 | 0.450 | OATP1B1 selective | 
9 | COC(=O)CC[C@@H](C)[C@H]1CC[C@H]2[C@@H]3[C@H](O)C[C@@H]4C[C@H](O)CC[C@]4(C)[C@H]3C[C@H](O)[C@]12C [cholic acid methyl ester] |  |  |  |  |  |  |  | 0.20 |  | 0.13
10 | C[C@H](CCC(=O)O)[C@H]1CC[C@H]2[C@@H]3CC[C@@H]4C[C@H](O)CC[C@]4(C)[C@H]3CC[C@]12C [lithocholate] |  |  |  |  |  |  |  | 0.918 |  | 6.807
